Assay results published in patent US9802899B2, “Heterocyclic compounds as pesticides” (BAYER CROPSCIENCE AG, priority 2012, dated 2017).

Test: Determination of the log P values by HPLC (formic acid method)
Assay type: physicochemical
Conditions: reversed-phase HPLC column (C 18), reversed-phase column (C 18), acidic range (pH 3.4), 55° C.
Protocol: 1) Description of Method for Determination of the Log P Values (Formic Acid Method)
Eluents for determination in the acidic range (pH 3.4):
Eluent A: acetonitrile+1 ml of formic acid/liter. Eluent B: water+0.9 ml of formic acid/liter.
The lambda max values were determined in the maxima of the chromatographic signals using the UV spectra from 200 nm to 400 nm.

| SMILES | chromatographic logP |
| --- | --- |
| O=C(Nc1ccn(-c2nccc(I)c2F)n1)c1ccccc1C(F)(F)F [Compound I-1-576, N-[1-(3-Fluoro-4-iodopyridin-2-yl)-1H-pyrazol-3-yl]-2-(trifluoromethyl)benzamide] | 2.96 |
| CCOc1cccc(F)c1-n1ccc(N)n1 [1-(2-Ethoxy-6-fluorophenyl)-1H-pyrazole-3-amine] | 1.47 |
| Nc1nn(-c2ncc(F)cc2F)c2ccc(F)cc12 [1-(3,5-Difluoropyridin-2-yl)-5-fluoro-1H-indazole-3-amine] | 2.09 |
| Nc1cc(F)c(-n2ccc(NC(=O)c3ccccc3C(=O)O)n2)c(F)c1 [Compound I-1-643, 2-{[1-(4-Amino-2,6-difluorophenyl)-1H-pyrazol-3-yl]carbamoyl}benzoic acid] | 1.38 |
| Nc1ccn(-c2nccc(I)c2F)n1 [1-(3-Fluoro-4-iodopyridin-2-yl)-1H-pyrazole-3-amine] | 1.38 |
| Nc1cc(F)c(-n2ccc(NC(=O)c3ccccc3C(F)(F)F)n2)c(F)c1 [Compound I-1-227, N-[1-(4-Amino-2,6-difluorophenyl)-1H-pyrazol-3-yl]-2-(trifluoromethyl)benzamide] | 2.32 |
| N#Cc1c(C(F)(F)F)cc(C2CC2)nc1-n1ccc(NC(=O)c2ccccc2C(F)(F)F)n1 [Compound I-1-570, N-{1-[3-Cyano-6-cyclopropyl-4-(trifluoromethyl)pyridin-2-yl]-1H-pyrazol-3-yl}-2-(trifluoromethyl)benzamide] | 3.99 |
| N#Cc1ccc(-n2ccc(NC(=O)c3ccccc3C(F)(F)F)n2)nc1Cl [Compound I-1-608, N-[1-(6-Chloro-5-cyanopyridin-2-yl)-1H-pyrazol-3-yl]-2-(trifluoromethyl)benzamide] | 3.17 |
| Nc1ccn(-c2ncc(F)cc2Cl)n1 [1-(3-Chloro-5-fluoropyridin-2-yl)-1H-pyrazole-3-amine] | 0.98 |
| N#Cc1cc(F)c(-n2ccc(NC(=O)c3ccccc3C(F)(F)F)n2)c(F)c1 [Compound I-1-228, N-[1-(4-Cyano-2,6-difluorophenyl)-1H-pyrazol-3-yl]-2-(trifluoromethyl)benzamide] | 2.66 |
| O=C(Nc1nn(-c2ccccc2Cl)c2ccccc12)c1ccccc1C(F)(F)F [Compound I-5-8, N-[1-(2-Chlorophenyl)-1H-indazol-3-yl]-2-(trifluoromethyl)benzamide] | 3.54 |

Same assay, conditions: reversed-phase column (C 18), acidic range (pH 3.4), 55° C.

| SMILES | log P |
| --- | --- |
| O=C(Nc1ccn(-c2ncccc2C(F)(F)F)n1)c1ccccc1I [Compound I-1-427] | 2.72 |
| CCCn1cc(Cl)c(C(=O)Nc2ccn(-c3ncc(F)cc3F)n2)n1 [Compound I-1-533] | 2.85 |
| O=C(Nc1ccn(-c2nccnc2F)n1)c1ccccc1I [Compound I-1-176] | 2.18 |
| Cn1nc(C(F)(F)F)c(C#N)c1C(=O)Nc1ccn(-c2ncc(F)cc2F)n1 [Compound I-1-536] | 2.76 |
| CCCn1cc(Cl)c(C(=O)Nc2ccn(-c3c(F)cccc3F)n2)n1 [Compound I-1-315] | 3.05 |
| O=C(Nc1ccn(-c2ccccc2[N+](=O)[O-])n1)c1c(F)cccc1F [Compound I-1-417] | 2.34 |
| O=C(Nc1ccn(-c2cccc(Cl)c2F)n1)c1cccnc1Br [Compound I-1-558] | 2.64 |
| O=C(Nc1ccn(-c2c(F)cccc2F)n1)c1cccc(Cl)c1Cl [Compound I-1-266] | 2.93 |
| O=C(Nc1ccn(-c2cc(Cl)ccc2Cl)n1)c1ccccc1Br [Compound I-1-119] | 3.40 |
| N#Cc1c(F)cccc1-n1ccc(NC(=O)c2ccccc2C(F)(F)F)n1 [Compound I-1-617] | 2.72 |
| O=C(Nc1ccn(-c2c(F)cccc2F)n1)c1c(F)cccc1C(F)(F)F [Compound I-1-276] | 2.72 |
| O=C(Nc1ccn(-c2ncc(F)cc2F)n1)c1c(Cl)cccc1C(F)(F)F [Compound I-1-638] | 2.70 |
| O=C(Nc1ccn(-c2cccc(F)c2F)n1)c1ccccc1C(F)(F)F [Compound I-1-65] | 3.13 |
| Cc1snnc1C(=O)Nc1ccn(-c2c(F)cccc2F)n1 [Compound I-1-332] | 2.45 |
| CC(C)Cn1ncc(I)c1C(=O)Nc1ccn(-c2c(F)cccc2F)n1 [Compound I-1-323] | 3.47 |
| O=C(Nc1ccn(-c2ncc(F)cc2F)n1)c1c(Cl)cccc1Cl [Compound I-1-479] | 2.51 |
| Cn1nc([N+](=O)[O-])c(Cl)c1C(=O)Nc1ccn(-c2ncc(F)cc2F)n1 [Compound I-1-530] | 2.50 |
| O=C(Nc1cnn(-c2ncccc2F)n1)c1ccccc1C(F)(F)F [Compound I-2-44] | 2.18 |
| O=C(Nc1ccn(-c2nccnc2F)n1)c1ccccc1C(F)(F)F [Compound I-1-173] | 2.24 |
| O=C(Nc1ccn(-c2ncccc2C(F)(F)F)n1)c1ccccc1C(F)(F)F [Compound I-1-422] | 2.72 |
| CS(=O)(=O)c1ccccc1-n1ccc(NC(=O)c2ccccc2C(F)(F)F)n1 [Compound I-1-179] | 2.13 |

| SMILES | log P |
| --- | --- |
| Cc1cc(NC(=O)c2ccccc2Cl)nn1-c1ccccc1Cl [Compound I-1-31] | 2.45 |
| O=C(Nc1cnn(-c2ccccc2Cl)n1)c1ccccc1I [Compound I-2-3] | 3.03 |
| O=C(Nc1ccn(-c2c(F)cccc2F)n1)c1occc1I [Compound I-1-288] | 2.64 |
| Cn1cccc1C(=O)Nc1ccn(-c2ncc(F)cc2F)n1 [Compound I-1-647] | 2.16 |
| O=C(Nc1nn(-c2ccccc2Cl)cc1I)c1ccccc1Cl [Compound I-1-30] | 3.01 |
| CCc1ccccc1C(=O)Nc1ccn(-c2ccccc2Cl)n1 [Compound I-1-12] | 3.30 |
| O=C(Nc1ccn(-c2ccccc2C(F)(F)F)n1)c1ccnn1C(F)F [Compound I-1-7] | 3.05 |
| Cc1nc(C)c(C(=O)Nc2ccn(-c3ncc(F)cc3F)n2)s1 [Compound I-1-478] | 1.88 |
| Cc1occc1C(=O)Nc1ccn(-c2c(F)cccc2F)n1 [Compound I-1-281] | 2.43 |
| O=C(Nc1ccn(-c2nc(F)c(F)cc2F)n1)c1ncccc1C(F)(F)F [Compound I-1-167] | 3.88 |
| N#Cc1cc(F)ccc1-n1ccc(NC(=O)c2cccnc2C(F)(F)F)n1 [Compound I-1-627] | 2.21 |
| O=C(Nc1ccn(-c2ccccc2Cl)n1)c1sccc1I [Compound I-1-379] | 3.34 |
| O=C(c1ccccc1C(F)(F)F)N(C(=O)c1ccccc1C(F)(F)F)c1cnn(-c2ncccc2Cl)n1 [Compound I-2-52] | 3.74 |
| O=C(Nc1cnn(-c2ncccc2Cl)n1)c1ccccc1Br [Compound I-2-13] | 2.26 |
| O=C(Nc1ccn(-c2c(F)cccc2F)n1)c1snc(Cl)c1Cl [Compound I-1-115] | 3.33 |
| O=C(Nc1ccn(-c2ccccc2Cl)n1)c1cccnc1C(F)(F)F [Compound I-1-42] | 2.48 |
| Cn1nc(C(C)(C)C)c([N+](=O)[O-])c1C(=O)Nc1ccn(-c2c(F)cccc2F)n1 [Compound I-1-292] | 3.33 |
| Cc1noc(C(F)F)c1C(=O)Nc1ccn(-c2c(F)cccc2F)n1 [Compound I-1-106] | 2.53 |
| O=C(Nc1ccn(-c2nccc(-c3ccc(F)cc3)c2F)n1)c1ccccc1C(F)(F)F [Compound I-1-642] | 3.40 |
| Cn1cnc(C(=O)Nc2ccn(-c3ncc(F)cc3F)n2)c1[N+](=O)[O-] [Compound I-1-454] | 1.58 |
| O=C(Nc1ccn(-c2ncc(F)cc2F)n1)c1cccnc1C(F)F [Compound I-1-460] | 1.77 |

| SMILES | log P |
| --- | --- |
| O=C(Nc1ccn(-c2ncc(F)cc2F)n1)c1ccccc1OC(F)F [Compound I-1-458] | 2.53 |
| N#Cc1cc(F)ccc1-n1ccc(NC(=O)c2ccccc2I)n1 [Compound I-1-634] | 2.57 |
| O=C(Nc1ccn(-c2ncccn2)n1)c1ccccc1Br [Compound I-1-168] | 1.72 |
| O=C(Nc1ccn(-c2ccc(F)cn2)n1)c1cccnc1C(F)(F)F [Compound I-1-597] | 2.32 |
| CC(C)Cc1nn(C)c(C(=O)Nc2ccn(-c3ncc(F)cc3F)n2)c1[N+](=O)[O-] [Compound I-1-508] | 3.02 |
| O=C(Nc1cnn(-c2ccc(C(F)(F)F)cn2)n1)c1ccccc1I [Compound I-2-43] | 3.04 |
| O=C(Nc1ccn(-c2ncc(Cl)cc2Cl)n1)c1ccccc1Br [Compound I-1-430] | 2.95 |
| O=C(Nc1cnn(-c2ncccc2F)n1)c1ccccc1Br [Compound I-2-46] | 2.04 |
| O=C(Nc1ccn(-c2c(F)cccc2F)n1)c1cccnc1C(F)(F)F [Compound I-1-93] | 2.68 |
| O=C(Nc1ccn(-c2ncc(F)cc2F)n1)c1cscc1Br [Compound I-1-524] | 2.30 |
| O=C(Nc1ccn(-c2ncc(F)cc2F)n1)c1ccccc1C1CC1 [Compound I-1-486] | 2.68 |
| CS(=O)(=O)c1ccccc1-n1ccc(NC(=O)c2ccccc2Br)n1 [Compound I-1-182] | 2.00 |
| O=C(Nc1ccn(-c2ncccc2F)n1)c1ccccc1Br [Compound I-1-130] | 2.12 |
| Cc1c([N+](=O)[O-])c(C(=O)Nc2ccn(-c3c(F)cccc3F)n2)nn1C [Compound I-1-234] | 2.03 |
| O=C(Nc1ccn(-c2ncc(F)cc2F)n1)c1c(F)cccc1I [Compound I-1-492] | 2.56 |
| CSc1ncccc1C(=O)Nc1ccn(-c2ncc(F)cc2F)n1 [Compound I-1-461] | 2.14 |
| O=C(Nc1cnn(-c2c(F)cccc2F)n1)c1sccc1C(F)(F)F [Compound I-2-82] | 2.95 |
| Cc1nn(C)c(C)c1C(=O)Nc1ccn(-c2ccccc2C(F)(F)F)n1 [Compound I-1-185] | 2.16 |
| O=C(Nc1ccn(-c2ncc(Cl)cc2Cl)n1)c1ccccc1I [Compound I-1-433] | 3.06 |
| Cc1nn(C(F)F)c(C(=O)Nc2ccn(-c3c(F)cccc3F)n2)c1Cl [Compound I-1-306] | 3.11 |
